Marks after values point to notes of the source that are not given here. One block for each compound: values may come before it.
Columns and labels:
[1] = Metabolic stability assay in liver microsomes; assay type: in vitro ADME; settings: human liver microsomes, pH 7.4, human liver microsome 0.5 mg/mL, 1 mM NADPH, compound 1 µM, 37 °C; for microsomal CLint at 1 µM: read-out: In vitro Clint; for half-life at 1 µM: read-out: In vitro T1/2
Method: The metabolic stability of compounds disclosed herein in liver microsomes was determined using the following method.
• 1. Liver microsome source: Human liver microsome (Corning, 452117) • 2. Na2HPO4 (Tianjin Guangfu Fine Chemical Research Institute, 20180130) • 3. KH2PO4 (Tianjin Guangfu Fine Chemical Research Institute, 20180920) • 4. MgCl2 (Tianjin Guangfu Fine Chemical Research Institute, 20191216) • 5. NADPH (Solarbio, 1216C022) • 6. Positive control compound verapamil (Sigma, MKBV4993V) • 7. AB Sciex Triple Quad 4000 liquid chromatography-mass spectrometry system
1. Preparation of 100 mM phosphate-buffered saline (PBS): 7.098 g Na2HPO4 was dissolved in 500 mL of purified water by sonication to give solution A. 3.400 g of KH2PO4 was dissolved in 250 mL of purified water by sonication to give solution B. Solution A was placed on a stirrer, and solution B was added slowly until the pH reached 7.4, so as to give a 100 mM PBS buffer. 2. Preparation of reaction system The reaction system was prepared according to the table below.
3. The reaction system was pre-incubated in a 37 °C water bath for 10 min. 40 µL of 10 mM NADPH solution (NADPH was dissolved in 100 mM phosphate-buffered saline) was added to the reaction system, with the final concentration of NADPH being 1 mM. A negative control was prepared by replacing the NADPH solution with 40 µL of phosphate-buffered saline. The negative control was used to exclude the effect of the chemical stability of the compound itself. 4. The reaction was initiated by adding 4 µL of 100 µM compound disclosed herein or positive control compound verapamil to the reaction system at a final concentration of 1 µM. 5. After 0.5 min, 15 min, 30 min, 45 min, and 60 min of mixing well by using a vortex oscillator, 50 µ L of the incubated sample was taken out, and glacial acetonitrile containing an internal standard of 4 folds was added to terminate the reaction. The sample was centrifuged at 3,220 g for 45 min. 90 µL of the supernatant was transferred to a feeding plate after the centrifugation was completed, and 90 µL ultrapure water was added. The mixture was well mixed for LC-MS/MS analysis.
All data were calculated by using Microsoft Excel software. The peak areas were determined by using an extracted ion chromatogram. The in vitro half-life (T1/2) of the test compound was determined by linear fitting of the natural logarithm of the elimination proportion of the test compound over time. In vitro half-life (T1/2) was calculated by the slope k: in vitro T1/2 = 0.693/k [formula]
The in vitro intrinsic clearance (in vitro CLint, unit: µL/min/mg protein) was calculated using the following formula: in vitro CLint = k × volume of incubation solution/enzyme protein content; [formula]

AR = AR antagonistic activity: AR / PSA ARE1 luciferase reporter gene assay in transfected LNCaP cells stimulated with 1 nM DHT; assay type: cell-based; settings: 24 h, normalised to 0.1% DMSO and 30 µM enzalutamide
Method: LNCaP cells were plated in a 6-well plate (Corning, 3516) at 8 × 10^5 cells/well.
AR and PSA ARE1 reporter gene plasmids (Bio (Anhui) Co., Ltd.) and transfection reagents Lipo3000 and P3000 (Lipofectamine™ 3000) (a total of 2.5 µg of plasmids, i.e., 1.25 µg of each plasmid, were added to each well) were left to stand and incubated for 10 min, and then 250 µL of the above transfection reagents were added dropwise to each well containing cells and co-incubated with the cells for 24 h.
The cells were washed with PBS, and the medium was replaced with a phenol red-free RPMI-1640 medium containing 5% carbon adsorption serum (or 10% fetal bovine serum and 1% penicillin and streptomycin). The cells were re-plated onto a 96-well plate (Corning, 3603) according to the number of cells plated (2 × 10^4 cells/well).
After cell plating, the test compound (or DMSO or positive control) was added. After at least 30 min of incubation, DHT (dihydrotestosterone) was added to the culture system at a final concentration of 1 nM. The culture system was then incubated in a carbon dioxide incubator.
Test compound: 10 mM stock solution, with a final concentration of 3.3 µM or 6.7 µM. Negative control: 0.1% DMSO. Positive control: 30 µM enzalutamide.
After the test compound (or DMSO or positive control) and DHT were co-incubated for 24 h, the luciferase signal was detected using the Vazyme Bright-Lite substrate. The medium was added at 70 µL/well, and the plate was shaken for 2 min, followed by reading of the luciferase signal.
Assay robustness was confirmed using the DMSO and low concentration control data: Ave_H = Ave(DMSO) [formula] Ave_L = Ave (30μMenzalutamide) [formula] Inhibition rate (%) = (Ave_H−Sample)/(Ave_H−Ave_L) × 100% [formula] Ave_H: the measurement of the negative control (0.1% DMSO); Ave_L: the measurement of the positive control (30 µM enzalutamide); Sample: the measurement of the test compound; The corresponding activity test results for the test compounds were specified in Table 1. Table 1. Corresponding activity test results for compounds disclosed herein

C57BL/6 mice = assay: In vivo pharmacodynamic study 1: hair growth scoring in shaved telogen-phase mice, topical treatment; settings: for Score (mean±SD): hair growth score 0-5, topical twice daily, compound 001 2 wt%, compound 008 0.5 wt%
Description: Vehicle: propylene glycol/ethanol (30:70, v/v)
Animal information: C57BL/6 mice (male, aged 4-6 weeks, about 18-20 g), purchased from Shanghai Lingchang Biotechnology Co., Ltd. The mice were bred in an SPF-level environment within independently ventilated cages.
Skin preparation: After 1-2 weeks of acclimation, the hairs in a 2 cm × 3 cm area of the back of the mice were shaved to confirm that the hairs of the mice were in the telogen phase (the skin was pink) and the skin was not damaged.
Treatment: On day 3 after shaving, the mice were grouped for treatment. […] The control group received the control solvent. 12 mice were in each group.
The mice were weighed on days 10, 13, 18, 21, 25, and 30, and the hair growth state was scored and photographed.
The scoring criteria are as follows: • 0: no growth, with pink skin in the shaved area; • 1: the skin in the shaved area was gray (an increase of less than 20%); • 2: the skin in the shaved area was black (more than 20% but less than 40%); • 3: the skin in the shaved area was black with a little hair growth (more than 40% but less than 60%); • 4: the skin in the shaved area was black with partial hair growth (more than 60% but less than 80%); • 5: basically complete hair growth (80%-100% growth) in the shaved area.

Whole blood stability = settings: human
Method: 1 mM stock solutions of the test compounds were prepared in DMSO, and a 1 mM stock solution of the reference compound propantheline was prepared in acetonitrile.
4 µL of test compound (or reference compound) stock solution was added to 796 µL of pre-incubated human blood (whole blood) at a final concentration of 5 µM. The final concentration of the solvent was 0.5%. At different time points (including 5 min, 15 min, 30 min, 60 min, and 120 min), a 50 µL aliquot of the whole blood containing the sample was added to a new tube and incubated in a 37 °C water bath with shaking at 60 rpm. The treatment was performed in duplicate. At designated time points, 300 µL of room-temperature quenching solution (a solution of acetonitrile containing internal standards (100 nM alprazolam, 500 nM labetalol, and 2 µM ketoprofen)) was added to the whole blood sample containing the sample to terminate the reaction. 50 µL of whole blood containing the sample was added to a new tube containing 300 µL of room-temperature quenching solution to prepare a sample at 0 min. All samples were vortexed for 5 min. The samples in the plate were centrifuged at 3220 g for 30 min at 4 °C to precipitate the proteins. 100 µL of the supernatant was transferred to a new 96-well plate containing 100 µL of water for LC-MS/MS analysis.
The peak area ratio was determined by using an extracted ion chromatogram. The proportion of remaining compound at each time point was calculated according to the following formula: Remaning proporion t min (%) = peak area ratio t min / peak area ratio 0 min × 100% [formula] • Peak area ratio t min: peak area ratio of reference compound to test compound at t min; • Peak area ratio 0 min: peak area ratio of reference compound to test compound at time zero.
The slope value was determined by linear regression on the curve of the natural logarithm of the remaining proportion of the test compound versus the incubation time.
Determination of in vitro half-life (in vitro t1/2) from the slope value: in vitro t1/2 = 0.693/k [formula] in the formula, k is the rate constant (k = -slope value)

[2] = treatment concentration: 3.3 µM
[3] = at the investigated doses (001 2%, 008 0.5%, BID topical)
[4] = treatment concentration: 6.7 µM

microsomal CLint at 1 µM [1]: 32.5 µL/min/mg | half-life at 1 µM [1]: 42.6 min
SMILES: CCOC(=O)[C@@](C)(O)C(=O)Nc1cnc(C#N)c(C(F)(F)F)c1 [Compound 002, Ethyl (2S)-3-[[6-cyano-5-(trifluoromethyl)pyridin-3-yl]amino]-2-hydroxy-2-methyl-3-oxopropanoate]
AR antagonism (inhibition rate, %) (AR; [2]): 89.16^a %

microsomal CLint at 1 µM [1]: 60.4 µL/min/mg | half-life at 1 µM [1]: 22.9 min
SMILES: CCOC(=O)[C@](C)(O)C(=O)Nc1cnc(C#N)c(C(F)(F)F)c1 [Compound 003, ethyl (2R)-3-[[6-cyano-5-(trifluoromethyl)pyridin-3-yl]amino]-2-hydroxy-2-methyl-3-oxopropanoate]
AR antagonism (inhibition rate, %) (AR; [2]): 75.26^a %

SMILES: CCCOC(=O)[C@@](C)(O)C(=O)Nc1cnc(C#N)c(C(F)(F)F)c1 [Compound 004, Propyl (2S)-3-[[6-cyano-5-(trifluoromethyl)-pyridin-3-yl]amino]-2-hydroxy-2-methyl-3-oxopropanoate]
AR antagonism (inhibition rate, %) (AR; [2]): 87.30^a %

SMILES: CCCOC(=O)[C@](C)(O)C(=O)Nc1cnc(C#N)c(C(F)(F)F)c1 [Compound 005, propyl (2R)-3-[[6-cyano-5-(trifluoromethyl)-pyridin-3-yl]amino]-2-hydroxy-2-methyl-3-oxopropanoate]
AR antagonism (inhibition rate, %) (AR; [2]): 58.52^a %

SMILES: CCCCOC(=O)[C@@](C)(O)C(=O)Nc1cnc(C#N)c(C(F)(F)F)c1 [Compound 006, butyl (2S)-3-[[6-cyano-5-(trifluoromethyl)pyridin-3-yl]amino]-2-hydroxy-2-methyl-3-oxopropanoate]
AR antagonism (inhibition rate, %) (AR; [2]): 93.92^a %

microsomal CLint at 1 µM [1]: 35.5 µL/min/mg | half-life at 1 µM [1]: 39.1 min | signs of erythema, dehiscence, desquamation, and the like on the skin (C57BL/6 mice; [3]): no signs
SMILES: CCOC(=O)C(O)(C(=O)Nc1cnc(C#N)c(C(F)(F)F)c1)C(F)(F)F (stereo not drawn) [Compound 008, Ethyl 2-[[6-cyano-5-(trifluoromethyl)-pyridin-3-yl]carbamoyl]-3,3,3-trifluoro-2-hydroxypropanoate]
Score (mean±SD) (C57BL/6 mice; Day 0): 0 | Score (mean±SD) (C57BL/6 mice; Day 10): 0.4±0.5 | Score (mean±SD) (C57BL/6 mice; Day 13): 0.6±0.5 | Score (mean±SD) (C57BL/6 mice; Day 18): 1.0±0.6 | Score (mean±SD) (C57BL/6 mice; Day 21): 1.1±0.7 | Score (mean±SD) (C57BL/6 mice; Day 25): 1.9±1.5 | Score (mean±SD) (C57BL/6 mice; Day 30): 2.8±2.1 | impact on the body weight of the mice (C57BL/6 mice; [3]): no significant impact | effect on mouse hair growth (C57BL/6 mice; compound 001 at 2%, compound 008 at 0.5%, BID topically at 20 µL/cm^2): significant promoting effect | day of the treatment from which hair growth was significantly promoted (C57BL/6 mice; vs. vehicle control, 001 P < 0.01, 008 P < 0.05): ≥ 13 days | AR antagonism (inhibition rate, %) (AR; [2]): 86.95^a %

SMILES: CCCOC(=O)C(O)(C(=O)Nc1cnc(C#N)c(C(F)(F)F)c1)C(F)(F)F (stereo not drawn) [Compound 010, Propyl 2-[[6-cyano-5-(trifluoromethyl)-pyridin-3-yl]carbamoyl]-3,3,3-trifluoro-2-hydroxypropanoate]
AR antagonism (inhibition rate, %) (AR; [2]): 82.14^a %

SMILES: CCCCOC(=O)C(O)(C(=O)Nc1cnc(C#N)c(C(F)(F)F)c1)C(F)(F)F (stereo not drawn) [Compound 011, Butyl 2-[[6-cyano-5-(trifluoromethyl)-pyridin-3-yl]carbamoyl]-3,3,3-trifluoro-2-hydroxypropanoate]
AR antagonism (inhibition rate, %) (AR; [2]): 88.48^a %

half-life at 5 µM (Whole blood stability): 349 min
SMILES: CC(C)OC(=O)C(C)(O)C(=O)Nc1cnc(C#N)c(C(F)(F)F)c1 (stereo not drawn) [Compound 013, Isopropyl 3-[[6-cyano-5-(trifluoromethyl)-pyridin-3-yl]amino]-2-hydroxy-2-methyl-3-oxopropanoate]
AR antagonism (inhibition rate, %) (AR; [2]): 90.0^a %

SMILES: CC(C)(C)OC(=O)C(C)(O)C(=O)Nc1cnc(C#N)c(C(F)(F)F)c1 (stereo not drawn) [Compound 014, tert-Butyl 3-[[6-cyano-5-(trifluoromethyl)-pyridin-3-yl]amino]-2-hydroxy-2-methyl-3-oxopropanoate]
AR antagonism (inhibition rate, %) (AR; [2]): 90.3^a %

SMILES: CCOC(=O)C(O)(C(=O)Nc1ccc(C#N)c(SC)c1F)C(F)(F)F (stereo not drawn) [Compound 015, Ethyl 2-[(4-cyano-2-fluoro-3-methylsulfanyl-phenyl)carbamoyl]-3,3,3-trifluoro-2-hydroxy-propanoate]
AR antagonism (inhibition rate, %) (AR; [2]): 65.06^a %

SMILES: CCOC(=O)C(C)(O)C(=O)Nc1cnc(C#N)c(SC)c1 (stereo not drawn) [Compound 016, Ethyl 3-[(6-cyano-5-methylthio-pyridin-3-yl)amino]-2-hydroxy-2-methyl-3-oxopropanoate]
microsomal CLint at 1 µM [1]: 102 µL/min/mg | half-life at 1 µM [1]: 13.6 min

SMILES: CCCCOC(=O)C(C)(O)C(=O)Nc1ccc(C#N)c(C(F)(F)F)c1 (stereo not drawn) [Compound 022, Butyl 3-[4-cyano-3-(trifluoromethyl)anilino]-2-hydroxy-2-methyl-3-oxo-propanoate]
AR antagonism (inhibition rate, %) (AR; [2]): 81.05^a %

SMILES: CCCCOC(=O)C(C)(O)C(=O)Nc1ccc(Cl)c(C(F)(F)F)c1 (stereo not drawn) [Compound 023, Butyl 3-[4-chloro-3-(trifluoromethyl)anilino]-2-hydroxy-2-methyl-3-oxo-propanoate]
AR antagonism (inhibition rate, %) (AR; [2]): 52.26^a %

SMILES: CCOC(=O)c1cccc(NC(=O)C(C)(O)C(=O)Nc2cnc(C#N)c(C(F)(F)F)c2)n1 (stereo not drawn) [Compound 032, Ethyl 6-(3-((6-cyano-5-(trifluoromethyl)pyridin-3-yl)amino)-2-hydroxy-2-methyl-3-oxopropanamido)picolinate]
AR antagonism (inhibition rate, %) (AR; [2]): 47.7^a %

SMILES: COc1cc(NC(=O)C(C)(O)C(=O)OC(C)(C)C)cnc1C#N (stereo not drawn) [Compound 048, tert-Butyl 3-[(6-cyano-5-methoxypyridin-3-yl)amino]-2-hydroxy-2-methyl-3-oxo-propanoate]
AR antagonism (inhibition rate, %) (AR; [4]): 62.18^b %

SMILES: CSc1cc(NC(=O)C(C)(O)C(=O)OC(C)(C)C)cnc1C#N (stereo not drawn) [Compound 049, tert-Butyl 3-[(6-cyano-5-methylthiopyridin-3-yl)amino]-2-hydroxy-2-methyl-3-oxo-propanoate]
AR antagonism (inhibition rate, %) (AR; [4]): 90.02^b %

Source: EP4772498A1, “COMPOUND ACTING AS ANDROGEN RECEPTOR ANTAGONIST” (China Pharmaceutical University, priority 2023, dated 2025)
